Results taken from patent US20250136634A1, “CAP ANALOG AND USE THEREOF” (SHANGHAI HONGENE BIOTECH CORPORATION, priority 2021, published 2025).

The substances below were run against T1, RIG-I (Homo sapiens, UniProt O95786) (assay: Binding ability of mRNA to RIG-I, RNA co-immunoprecipitation and qPCR in Hela cells). Settings: Example 2; 2 ug mRNA/well, cells collected after 24 hours, relative to ^m7GpppApG cap, mean±SD.
T1 construct: endogenous in cells; host or cells: Hela cells (ATCC CCL-2)
T1 sequence (O95786 1-925): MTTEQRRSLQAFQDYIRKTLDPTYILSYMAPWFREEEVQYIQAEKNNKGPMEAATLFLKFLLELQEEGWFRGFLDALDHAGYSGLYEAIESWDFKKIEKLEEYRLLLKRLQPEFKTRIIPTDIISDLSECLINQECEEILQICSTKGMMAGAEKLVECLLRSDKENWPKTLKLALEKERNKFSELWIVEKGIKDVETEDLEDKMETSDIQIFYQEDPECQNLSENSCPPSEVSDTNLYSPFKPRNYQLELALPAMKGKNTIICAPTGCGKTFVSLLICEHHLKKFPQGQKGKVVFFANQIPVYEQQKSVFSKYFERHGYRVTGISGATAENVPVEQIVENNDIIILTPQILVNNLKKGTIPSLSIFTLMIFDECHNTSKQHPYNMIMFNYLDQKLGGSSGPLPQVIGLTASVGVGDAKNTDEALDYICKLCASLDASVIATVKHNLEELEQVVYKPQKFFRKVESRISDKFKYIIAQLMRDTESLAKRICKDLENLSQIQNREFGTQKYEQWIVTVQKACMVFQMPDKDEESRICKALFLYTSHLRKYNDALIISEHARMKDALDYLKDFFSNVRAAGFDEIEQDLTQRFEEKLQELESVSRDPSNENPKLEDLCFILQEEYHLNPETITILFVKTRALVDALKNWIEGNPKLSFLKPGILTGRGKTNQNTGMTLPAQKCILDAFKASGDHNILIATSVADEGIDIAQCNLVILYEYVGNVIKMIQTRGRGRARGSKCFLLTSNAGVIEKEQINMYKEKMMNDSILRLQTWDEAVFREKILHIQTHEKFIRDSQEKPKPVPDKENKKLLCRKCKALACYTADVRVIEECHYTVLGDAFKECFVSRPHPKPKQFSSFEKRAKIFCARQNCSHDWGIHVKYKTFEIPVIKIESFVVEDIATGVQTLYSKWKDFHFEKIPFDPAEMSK
Experimental: In this example, Hela cells (ATCC CCL-2) were transfected with luciferase mRNAs (Gaussia luciferase) comprising various initial cap structures (the initial cap nucleotide structures comprised are: ^m7GpppApG, ^m7GpppA2′Ome pG, ^m7G3′OmepppA2′O-ethylpG, ^m7G2′OmepppA2′O-ethylpG, ^m7G3′Omeppp A2′O-MOEpG, ^m7G2′O-mepppA2′O-MOEpG, ^m7Gppp(N6-methyladenine)2′O-MOEpG, ^m7G2′OmepppC2′O-ethylpC, ^m7G3′OmepppA2′O-MOEpU), and collected after 24 hours. The intracellular proteins RIG-I and IFIT1 were co-precipitated with the RNAs to which they bound by RNA co-immunoprecipation. The mRNAs were subjected to reverse transcription and real-time quantitative PCR, and the relative abundance of the mRNAs is proportional to their RIG-I and IFIT1 binding ability.
(§1) Hela cells were seeded at a cell density of 4×10^5/well in 6-well plates, and transfected with mRNA at 2 ug mRNA/well when the cell density reached about 80% using Lipofectamine MessengerMAX Transfection Reagent (Invitrogen) according to the transfection steps in the instruction. The cells were collected after 24 hours, and incubated at RT for 10 minutes after the addition of fixative solution. The reaction was then terminated by adding glycine at a suitable concentration, and the cells were collected by centrifugation. Appropriate amount of lysis solution was added to the cells. The mixture was incubated on ice for 30 minutes and centrifuged to collect supernatant. Appropriate amount of (2-4 ng) anti-RIG-I and IFIT1 antibodies (Abcam) were added to the supernatant, and the mixture was incubated overnight at 4° C. on a shaker, and then 20 ul Protein A/G magnetic beads were added and incubated for 2 hours at 4° C. on a shaker. The beads were rinsed using magnetic grate for 5 minutes and repeated 3 times. After that, 1 mL TRIzol reagent was added to the magnetic beads to extract RNAs which were then reverse transcribed into cDNAs. The expression of related genes was detected using real-time quantitative fluorescent PCR with B-actin as the internal reference. The detection of each gene was repeated 3 times, and the result of the expression of each gene is expressed as the relative value to the result of ^m7GpppApG cap.
The intracellular proteins RIG-I and IFIT1 were co-precipitated with the RNAs to which they bound by RNA co-immunoprecipitation. The mRNAs were subjected to reverse transcription and real-time quantitative PCR, and the relative abundance of the mRNAs is proportional to their RIG-I and IFIT1 binding ability.
as §1, with “(Invitrogen) as the transfection reagent” for “(Invitrogen)”, “was” for “was then”

Row | Substance | Relative binding ability to RIG
1 | ^m7Gppp(N6-methyladenine)2′O-MOEpG | 0.77 ± 0.14
2 | ^m7G3′OmepppA2′O-MOEpU | 1.12 ± 0.01
3 | ^m7G2′OmepppA2′O-ethylpG | 0.82 ± 0.03
4 | ^m7G2′OmepppC2′O-ethylpC | 0.93 ± 0.08
5 | ^m7G3′OmepppA2′O-MOEpG | 0.78 ± 0.07
6 | ^m7G2′OmepppA2′O-MOEpG | 0.69 ± 0.01
7 | ^m7G3′OmepppA2′O-ethylpG | 0.87 ± 0.11
8 | ^m7GpppApG [reference compound] | 1 ± 0.23
9 | ^m7GpppA2′Ome pG [reference compound] | 0.86 ± 0.06

Same assay, conditions: Example 3 (IVT at 50° C.); 2 ug mRNA/well, cells collected after 24 hours, relative to ^m7GpppApG cap, mean±SD

Row | Substance | Relative binding ability to RIG
10 | ^m7GBeta-D-LNApppA2′O-MOEpG | 0.48 ± 0.02
11 | ^m7GpppApG [reference compound] | 1 ± 0.28
12 | ^m7GAlpha-L-LNApppA2′O-ethyl pG | 0.52 ± 0.01
13 | ^m7GpppA2′Ome pG [reference compound] | 0.88 ± 0.11
